According to patent publication US12679878B2, “CRF2 receptor agonists and their use in therapy” (SANOFI, priority 2020, dated 2026):
Read-outs that look alike come from different tables or passages of the source. Starred links: 1 amine or outer side, 2 acyl side, 3 side chain; linkers in the order of their positions; H or OH if unused. Non-standard residues stand in square brackets, D forms with d. Residues, ends and D or L forms follow the SMILES beside them. Groups on a side chain read outwards from the residue. *: point of attachment. C18 diacid = O=C(O)CCCCCCCCCCCCCCCCC(=O)*; γGlu = O=C(O)[C@H](CCC(=O)[*:2])N[*:1]; AEEA = NCCOCCOCC(=O)O; Aib = CC(C)(N)C(=O)O

Molecular target: T1, human CRF2α receptor (Homo sapiens, UniProt Q13324)
T1 construct: expressed in transfected cells; host or cells: TeloHEAC
T1 sequence (Q13324 1-411): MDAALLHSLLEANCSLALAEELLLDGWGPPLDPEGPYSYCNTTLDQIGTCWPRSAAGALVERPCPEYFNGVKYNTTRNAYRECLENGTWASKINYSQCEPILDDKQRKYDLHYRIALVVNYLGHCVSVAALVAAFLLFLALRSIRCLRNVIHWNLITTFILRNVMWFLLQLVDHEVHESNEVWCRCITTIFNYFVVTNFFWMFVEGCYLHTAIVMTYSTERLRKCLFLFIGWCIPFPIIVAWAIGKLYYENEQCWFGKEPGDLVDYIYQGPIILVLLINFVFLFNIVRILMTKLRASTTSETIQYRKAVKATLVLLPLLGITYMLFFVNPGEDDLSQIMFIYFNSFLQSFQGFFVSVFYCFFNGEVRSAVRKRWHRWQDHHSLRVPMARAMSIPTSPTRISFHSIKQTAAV
Assay: cAMP agonism at human CRF2 α receptor in TeloHEAC cells (Example 7)
Type: cell-based
How it was run: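 Thawed frozen stably transfected cells in HBSS/20 mM HEPES (0% or 0.1% HSA) plus 2 mM IBMX were exposed to compound at 2000 cells/well for 30 min at room temperature. Intracellular cAMP was read by HTRF (665/620 nm ratio) after 1 h lysis; EC50 was derived with 1000 nM urocortin 2 set as 100%.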

[1] = cAMP HTRF, TeloHEAC cells stably expressing human CRF2 α, 0% HSA, read-out: EC50 [nM], 0% HSA
[2] = cAMP HTRF, TeloHEAC cells stably expressing human CRF2 α, 0.1% HSA, read-out: EC50 [nM], 0.1% HSA

SMILES | EC50 [1] [nM] | EC50 [2] [nM] | EC50 (EC50 [nM], 0% HSA) [nM] | EC50 (EC50 [nM], 0.1% HSA) [nM]
CC[C@H](C)[C@H](N)C(=O)N[C@H](C(=O)N[C@@H](CC(C)C)C(=O)N[C@@H](CO)C(=O)N[C@@H](CC(C)C)C(=O)N[C@@H](CC(=O)O)C(=O)N[C@@H](C(=O)N1CCC[C@H]1C(=O)N[C@H](C(=O)N[C@@H](CCCCN)C(=O)N[C@@H](CC(C)C)C(=O)N[C@@H](CCCCNC(=O)COCCOCCNC(=O)COCCOCCNC(=O)CC[C@H](NC(=O)CCCCCCCCCCCCCCCCC(=O)O)C(=O)O)C(=O)N[C@@H](CCC(N)=O)C(=O)N[C@H](C(=O)N[C@@H](CC(C)C)C(=O)N[C@@H](CC(C)C)C(=O)N[C@@H](CCCCN)C(=O)N[C@@H](CCC(N)=O)C(=O)N[C@@H](CCC(=O)O)C(=O)N[C@@H](CCCNC(=N)N)C(=O)N[C@@H](CCC(N)=O)C(=O)N[C@@H](CCCCN)C(=O)NC(C)(C)C(=O)N[C@@H](CCC(N)=O)C(=O)N[C@@H](CCCNC(=N)N)C(=O)N[C@@H](CCC(=O)O)C(=O)N[C@@H](CCC(N)=O)C(=O)N[C@@H](C)C(=O)N[C@@H](CCC(=O)O)C(=O)N[C@@H](CCCCN)C(=O)N[C@@H](CC(N)=O)C(=O)N[C@@H](CCCCN)C(=O)N[C@@H](CCC(N)=O)C(=O)N[C@H](C(=O)N[C@@H](CC(C)C)C(=O)N[C@@H](CCC(=O)O)C(=O)N[C@@H](CCCNC(=N)N)C(=O)N[C@H](C(N)=O)C(C)C)[C@@H](C)CC)[C@@H](C)CC)[C@@H](C)CC)C(C)C)C(C)C [compound 133] (H-IVLSLD[dV]PIKLK([AEEA-AEEA-γGlu-C18 diacid])QILLKQERQK[Aib]QREQAEKNKQILERV-NH2; N-terminus assumed) | 0.09 | 3.19 |  | 
CC[C@H](C)[C@H](NC(=O)[C@H](CCC(N)=O)NC(=O)[C@H](CCCCN)NC(=O)[C@H](CC(N)=O)NC(=O)[C@@H](NC(=O)[C@H](CCCCN)NC(=O)[C@H](C)NC(=O)[C@H](CCCCN)NC(=O)[C@H](CCC(N)=O)NC(=O)[C@H](CCCNC(=N)N)NC(=O)[C@H](CCC(N)=O)NC(=O)[C@H](CCCCN)NC(=O)[C@H](CCCCN)NC(=O)[C@H](CCC(N)=O)NC(=O)[C@H](CCCCN)NC(=O)[C@H](CCC(=O)O)NC(=O)[C@H](CCC(N)=O)NC(=O)[C@H](CCCCN)NC(=O)[C@H](CC(C)C)NC(=O)[C@H](CC(C)C)NC(=O)[C@@H](NC(=O)[C@H](CCC(N)=O)NC(=O)[C@H](CCCCNC(=O)COCCOCCNC(=O)COCCOCCNC(=O)CC[C@H](NC(=O)CCCCCCCCCCCCCCCCC(=O)O)C(=O)O)NC(=O)[C@@H](NC(=O)[C@H](CCCCN)NC(=O)[C@@H](NC(=O)[C@@H]1CCCN1C(=O)[C@@H](NC(=O)[C@H](CC(=O)O)NC(=O)[C@H](CC(C)C)NC(=O)[C@H](CO)NC(=O)[C@H](CC(C)C)NC(=O)[C@@H](NC(=O)[C@@H](N)Cc1ccccc1)[C@@H](C)O)C(C)C)[C@@H](C)O)[C@@H](C)CC)[C@@H](C)CC)[C@@H](C)O)C(=O)N[C@@H](CC(C)C)C(=O)N[C@@H](CCC(=O)O)C(=O)N[C@@H](CCCNC(=N)N)C(=O)N[C@H](C(N)=O)C(C)C [compound 143] (H-FTLSLDVPTKIK([AEEA-AEEA-γGlu-C18 diacid])QILLKQEKQKKQRQKAKTNKQILERV-NH2) |  |  | 1.44 | 93.8
CC[C@H](C)[C@H](NC(=O)[C@H](CCC(N)=O)NC(=O)[C@H](CCCCN)NC(=O)[C@H](CC(N)=O)NC(=O)[C@@H](NC(=O)[C@H](CCCCN)NC(=O)[C@H](C)NC(=O)[C@H](CCCCN)NC(=O)[C@H](CCC(N)=O)NC(=O)[C@H](CCCNC(=N)N)NC(=O)[C@H](CCC(N)=O)NC(=O)[C@H](CCCCN)NC(=O)[C@H](CCCCN)NC(=O)[C@H](CCC(N)=O)NC(=O)[C@H](CCCNC(=N)N)NC(=O)[C@H](CCC(=O)O)NC(=O)[C@H](CCC(N)=O)NC(=O)[C@H](CCCCN)NC(=O)[C@H](CC(C)C)NC(=O)[C@H](CC(C)C)NC(=O)[C@@H](NC(=O)[C@H](CCC(N)=O)NC(=O)[C@H](CCCCNC(=O)COCCOCCNC(=O)COCCOCCNC(=O)CC[C@H](NC(=O)CCCCCCCCCCCCCCCCC(=O)O)C(=O)O)NC(=O)[C@@H](NC(=O)[C@H](CCCCN)NC(=O)[C@@H](NC(=O)[C@@H]1CCCN1C(=O)[C@@H](NC(=O)[C@H](CC(=O)O)NC(=O)[C@H](CC(C)C)NC(=O)[C@H](CO)NC(=O)[C@H](CC(C)C)NC(=O)[C@@H](NC(=O)[C@@H](N)Cc1ccccc1)[C@@H](C)O)C(C)C)[C@@H](C)O)[C@@H](C)CC)[C@@H](C)CC)[C@@H](C)O)C(=O)N[C@@H](CC(C)C)C(=O)N[C@@H](CCC(=O)O)C(=O)N[C@@H](CCCNC(=N)N)C(=O)N[C@H](C(N)=O)C(C)C [compound 144] (H-FTLSLDVPTKIK([AEEA-AEEA-γGlu-C18 diacid])QILLKQERQKKQRQKAKTNKQILERV-NH2) | 1.36 | 76.3 |  | 
CC[C@H](C)[C@H](NC(=O)[C@H](CCC(N)=O)NC(=O)[C@H](CCCCN)NC(=O)[C@H](CC(N)=O)NC(=O)[C@H](CCCCN)NC(=O)[C@H](CCCCN)NC(=O)[C@H](C)NC(=O)[C@H](CCCCN)NC(=O)[C@H](CCC(N)=O)NC(=O)[C@H](CCCNC(=N)N)NC(=O)[C@H](CCC(N)=O)NC(=O)[C@H](CCCCN)NC(=O)[C@H](CCCCN)NC(=O)[C@H](CCC(N)=O)NC(=O)[C@H](CCCNC(=N)N)NC(=O)[C@H](CCC(=O)O)NC(=O)[C@H](CCC(N)=O)NC(=O)[C@H](CCCCN)NC(=O)[C@H](CC(C)C)NC(=O)[C@H](CC(C)C)NC(=O)[C@@H](NC(=O)[C@H](CCC(N)=O)NC(=O)[C@H](CCCCNC(=O)COCCOCCNC(=O)COCCOCCNC(=O)CC[C@H](NC(=O)CCCCCCCCCCCCCCCCC(=O)O)C(=O)O)NC(=O)[C@@H](NC(=O)[C@H](CCCCN)NC(=O)[C@@H](NC(=O)[C@@H]1CCCN1C(=O)[C@@H](NC(=O)[C@H](CC(=O)O)NC(=O)[C@H](CC(C)C)NC(=O)[C@H](CO)NC(=O)[C@H](CC(C)C)NC(=O)[C@@H](NC(=O)[C@@H](N)Cc1ccccc1)[C@@H](C)O)C(C)C)[C@@H](C)O)[C@@H](C)CC)[C@@H](C)CC)C(=O)N[C@@H](CC(C)C)C(=O)N[C@@H](CCC(=O)O)C(=O)N[C@@H](CCCNC(=N)N)C(=O)N[C@H](C(N)=O)C(C)C [compound 145] (H-FTLSLDVPTKIK([AEEA-AEEA-γGlu-C18 diacid])QILLKQERQKKQRQKAKKNKQILERV-NH2) | 1.46 | 96.9 |  | 
CC[C@H](C)[C@H](NC(C)=O)C(=O)N[C@H](C(=O)N[C@@H](CC(C)C)C(=O)N[C@@H](CO)C(=O)N[C@@H](CC(C)C)C(=O)N[C@@H](CC(=O)O)C(=O)N[C@H](C(=O)N1CCC[C@H]1C(=O)N[C@H](C(=O)NCC(=O)N[C@@H](CC(C)C)C(=O)N[C@@H](CCCCNC(=O)COCCOCCNC(=O)COCCOCCNC(=O)CC[C@H](NC(=O)CCCCCCCCCCCCCCCCC(=O)O)C(=O)O)C(=O)N[C@@H](CCC(N)=O)C(=O)N[C@H](C(=O)N[C@@H](CC(C)C)C(=O)N[C@@H](CC(C)C)C(=O)N[C@@H](CCC(=O)O)C(=O)N[C@@H](CCC(N)=O)C(=O)N[C@@H](CCC(=O)O)C(=O)N[C@@H](CCCCN)C(=O)N[C@@H](CCC(N)=O)C(=O)N[C@@H](CCC(=O)O)C(=O)N[C@@H](CCCCN)C(=O)N[C@@H](CCC(=O)O)C(=O)N[C@@H](CCCCN)C(=O)N[C@@H](CCC(N)=O)C(=O)N[C@@H](CCC(N)=O)C(=O)N[C@@H](C)C(=O)N[C@@H](CCC(=O)O)C(=O)N[C@H](C(=O)N[C@@H](CC(N)=O)C(=O)N[C@@H](C)C(=O)N[C@@H](CCC(N)=O)C(=O)N[C@H](C(=O)N[C@@H](CC(C)C)C(=O)N[C@@H](C)C(=O)N[C@@H](CCC(N)=O)C(=O)N[C@H](C(N)=O)C(C)C)[C@@H](C)CC)[C@@H](C)O)[C@@H](C)CC)[C@@H](C)CC)C(C)C)C(C)C [compound 153] (Ac-IVLSLDVPIGLK([AEEA-AEEA-γGlu-C18 diacid])QILLEQEKQEKEKQQAETNAQILAQV-NH2) | 33.7 |  |  | 
CC[C@H](C)[C@H](N)C(=O)N[C@H](C(=O)N[C@@H](CC(C)C)C(=O)N[C@@H](CO)C(=O)N[C@@H](CC(C)C)C(=O)N[C@@H](CC(=O)O)C(=O)N[C@H](C(=O)N1CCC[C@H]1C(=O)N[C@H](C(=O)NCC(=O)N[C@@H](CC(C)C)C(=O)N[C@@H](CCCCNC(=O)COCCOCCNC(=O)COCCOCCNC(=O)CC[C@H](NC(=O)CCCCCCCCCCCCCCCCC(=O)O)C(=O)O)C(=O)N[C@@H](CCC(N)=O)C(=O)N[C@H](C(=O)N[C@@H](CC(C)C)C(=O)N[C@@H](CC(C)C)C(=O)N[C@@H](CCC(=O)O)C(=O)N[C@@H](CCC(N)=O)C(=O)N[C@@H](CCC(=O)O)C(=O)N[C@@H](CCCCN)C(=O)N[C@@H](CCC(N)=O)C(=O)N[C@@H](CCC(=O)O)C(=O)N[C@@H](CCCCN)C(=O)N[C@@H](CCC(=O)O)C(=O)N[C@@H](CCCCN)C(=O)N[C@@H](CCC(N)=O)C(=O)N[C@@H](CCC(N)=O)C(=O)N[C@@H](C)C(=O)N[C@@H](CCC(=O)O)C(=O)N[C@H](C(=O)N[C@@H](CC(N)=O)C(=O)N[C@@H](CCCCN)C(=O)N[C@@H](CCCNC(=N)N)C(=O)N[C@H](C(=O)N[C@@H](CC(C)C)C(=O)N[C@@H](CCC(=O)O)C(=O)N[C@@H](CCCNC(=N)N)C(=O)N[C@H](C(N)=O)C(C)C)[C@@H](C)CC)[C@@H](C)O)[C@@H](C)CC)[C@@H](C)CC)C(C)C)C(C)C [compound 154] (H-IVLSLDVPIGLK([AEEA-AEEA-γGlu-C18 diacid])QILLEQEKQEKEKQQAETNKRILERV-NH2; N-terminus assumed) | 15 | 15.3 |  | 
